Target: Mcl-1 protein (UniProtKB primary accession number: Q07820) (Homo sapiens, UniProt Q07820)
Assay: Inhibition of Mcl-1 by fluorescence polarisation, Method 1
Type: binding
Conditions: for IC50: fluorescence polarisation, Method 1, or Method 2, read-out: IC50 (M) Mcl-1 FP; for percentage fluorescence polarisation inhibition, Mcl-1 FP: partial inhibitors, @ 10 uM test compound, 10 µM
Outline: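 Compounds were tested as 11-point serial dilutions at 5% final DMSO against 5 nM Mcl-1 with 1 nM fluorescein-labelled ligand in 10 mM HEPES, 150 mM NaCl, 0.05% Tween 20, pH 7.4. Relative binding potency was read by fluorescence polarisation.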

Mcl-1 protein, sequence (Q07820 whole entry): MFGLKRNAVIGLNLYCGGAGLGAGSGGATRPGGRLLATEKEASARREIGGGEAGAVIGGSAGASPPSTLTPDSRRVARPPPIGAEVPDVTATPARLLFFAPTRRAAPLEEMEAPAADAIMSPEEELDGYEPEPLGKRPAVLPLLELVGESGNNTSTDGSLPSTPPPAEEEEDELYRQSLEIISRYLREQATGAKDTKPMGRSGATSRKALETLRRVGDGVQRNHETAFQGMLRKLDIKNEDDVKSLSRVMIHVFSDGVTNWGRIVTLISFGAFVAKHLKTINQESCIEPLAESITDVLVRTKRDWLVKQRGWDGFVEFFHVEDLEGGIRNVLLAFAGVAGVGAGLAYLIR

IC50 [M] | SMILES | percentage fluorescence polarisation inhibition, Mcl-1 FP [% @ 10 uM]
5.1e-07 | Cc1ccsc1-c1sc2ncnc(OC(Cc3ccccc3)C(=O)O)c2c1-c1ccc(OCCN2CCN(C)CC2)c(Cl)c1C [Example 517, (2R)-2-{[(5Sa)-5-{3-chloro-2-methyl-4-[2-(4-methylpiperazin-1-yl)ethoxy]phenyl}-6-(3-methylthiophen-2-yl)thieno[2,3-d]pyrimidin-4-yl]oxy}-3-phenylpropanoic acid] | 
2.3e-08 | CC#Cc1sc2ncnc(OC(Cc3ccccc3)C(=O)O)c2c1-c1ccc(OCCN2CCN(C)CC2)c(Cl)c1C [Example 519, (2R)-2-{[(5Sa)-5-{3-chloro-2-methyl-4-[2-(4-methylpiperazin-1-yl)ethoxy]phenyl}-6-(prop-1-yn-1-yl)thieno[2,3-d]pyrimidin-4-yl]oxy}-3-phenylpropanoic acid] | 
4.1e-08 | Cc1c(-c2c(C#CC3CC3)sc3ncnc(OC(Cc4ccccc4)C(=O)O)c23)ccc(OCCN2CCN(C)CC2)c1Cl [Example 520, (2R)-2-{[(5Sa)-5-{3-chloro-2-methyl-4-[2-(4-methylpiperazin-1-yl)ethoxy]phenyl}-6-(cyclopropylethynyl)thieno[2,3-d]pyrimidin-4-yl]oxy}-3-phenylpropanoic acid] | 
2.4e-07 | Cc1c(-c2c(C#N)sc3ncnc(OC(Cc4ccccc4)C(=O)O)c23)ccc(OCCN2CCN(C)CC2)c1Cl [Example 521, (2R)-2-[((5Sa)-5-{3-chloro-2-methyl-4-[2-(4-methylpiperazin-1-yl)ethoxy]phenyl}-6-cyanothieno[2,3-d]pyrimidin-4-yl)oxy]-3-phenylpropanoic acid] | 
7.5e-08 | CC(=O)c1sc2ncnc(OC(Cc3ccccc3)C(=O)O)c2c1-c1ccc(OCCN2CCN(C)CC2)c(Cl)c1C [Example 522, (2R)-2-[(6-acetyl-(5Sa)-5-{3-chloro-2-methyl-4-[2-(4-methylpiperazin-1-yl)ethoxy]phenyl}thieno[2,3-d]pyrimidin-4-yl)oxy]-3-phenylpropanoic acid] | 
4.3e-08 | COc1ccccc1CC(Oc1ncnc2sc(-c3ccc(F)c(F)c3F)c(-c3ccc(OCCN4CCN(C)CC4)c(Cl)c3C)c12)C(=O)O [Example 537, (2R)-2-{[(5Sa)-5-{3-chloro-2-methyl-4-[2-(4-methylpiperazin-1-yl)ethoxy]phenyl}-6-(2,3,4-trifluorophenyl)thieno[2,3-d]pyrimidin-4-yl]oxy}-3-(2-methoxyphenyl)propanoic acid] | 
4.3e-07 | COc1ccccc1CC(Oc1ncnc2sc(-c3ccc(C(OC)OC)o3)c(-c3ccc(OCCN4CCN(C)CC4)c(Cl)c3C)c12)C(=O)O [Example 542, (2R)-2-[((5Sa)-5-{3-chloro-2-methyl-4-[2-(4-methylpiperazin-1-yl)ethoxy]phenyl}-6-[5-(dimethoxymethyl)furan-2-yl]thieno[2,3-d]pyrimidin-4-yl)oxy]-3-(2-methoxyphenyl)propanoic acid] | 
4.8e-08 | COc1ccccc1CC(Oc1ncnc2sc(-c3cccc(Cl)c3)c(-c3ccc(OCCN4CCN(C)CC4)c(Cl)c3C)c12)C(=O)O [Example 550, (2R)-2-{[(5Sa)-5-{3-chloro-2-methyl-4-[2-(4-methylpiperazin-1-yl)ethoxy]phenyl}-6-(3-chlorophenyl)thieno[2,3-d]pyrimidin-4-yl]oxy}-3-(2-methoxyphenyl)propanoic acid] | 
2.8e-08 | COc1ccccc1CC(Oc1ncnc2sc(-c3cccc(F)c3)c(-c3ccc(OCCN4CCN(C)CC4)c(Cl)c3C)c12)C(=O)O [Example 551, (2R)-2-{[(5Sa)-5-{3-chloro-2-methyl-4-[2-(4-methylpiperazin-1-yl)ethoxy]phenyl}-6-(3-fluorophenyl)thieno[2,3-d]pyrimidin-4-yl]oxy}-3-(2-methoxyphenyl)propanoic acid] | 
3.9e-07 | COc1ccccc1CC(Oc1ncnc2sc(-c3cccc(OC(F)(F)F)c3)c(-c3ccc(OCCN4CCN(C)CC4)c(Cl)c3C)c12)C(=O)O [Example 555, (2R)-2-[((5Sa)-5-{3-chloro-2-methyl-4-[2-(4-methylpiperazin-1-yl)ethoxy]phenyl}-6-[3-(trifluoromethoxy)phenyl]thieno[2,3-d]pyrimidin-4-yl)oxy]-3-(2-methoxyphenyl)propanoic acid] | 
1.2e-08 | COc1ccccc1CC(Oc1ncnc2sc(-c3cccc(Oc4ccc(F)cc4)c3)c(-c3ccc(OCCN4CCN(C)CC4)c(Cl)c3C)c12)C(=O)O [Example 556, (2R)-2-[((5Sa)-5-{3-chloro-2-methyl-4-[2-(4-methylpiperazin-1-yl)ethoxy]phenyl}-6-[3-(4-fluorophenoxy)phenyl]thieno[2,3-d]pyrimidin-4-yl)oxy]-3-(2-methoxyphenyl)propanoic acid] | 
5.1e-07 | COc1ccccc1CC(Oc1ncnc2sc(-c3cccc(OC(F)(F)F)c3F)c(-c3ccc(OCCN4CCN(C)CC4)c(Cl)c3C)c12)C(=O)O [Example 562, (2R)-2-[((5Sa)-5-{3-chloro-2-methyl-4-[2-(4-methylpiperazin-1-yl)ethoxy]phenyl}-6-[2-fluoro-3-(trifluoromethoxy)phenyl]thieno[2,3-d]pyrimidin-4-yl)oxy]-3-(2-methoxyphenyl)propanoic acid] | 
3e-08 | COc1ccccc1CC(Oc1ncnc2sc(-c3ccccc3F)c(-c3ccc(OCCN4CCN(C)CC4)c(Cl)c3C)c12)C(=O)O [Example 566, (2R)-2-{[(5Sa)-5-{3-chloro-2-methyl-4-[2-(4-methylpiperazin-1-yl)ethoxy]phenyl}-6-(2-fluorophenyl)thieno[2,3-d]pyrimidin-4-yl]oxy}-3-(2-methoxyphenyl)propanoic acid] | 
2.1e-08 | COc1ccccc1CC(Oc1ncnc2sc(-c3cccnc3)c(-c3ccc(OCCN4CCN(C)CC4)c(Cl)c3C)c12)C(=O)O [Example 567, (2R)-2-{[(5Sa)-5-{3-chloro-2-methyl-4-[2-(4-methylpiperazin-1-yl)ethoxy]phenyl}-6-(pyridin-3-yl)thieno[2,3-d]pyrimidin-4-yl]oxy}-3-(2-methoxyphenyl)propanoic acid] | 
1.9e-08 | CC#Cc1sc2ncnc(OC(Cc3ccccc3OC)C(=O)O)c2c1-c1ccc(OCCN2CCN(C)CC2)c(Cl)c1C [Example 572, (2R)-2-{[(5Sa)-5-{3-chloro-2-methyl-4-[2-(4-methylpiperazin-1-yl)ethoxy]phenyl}-6-(prop-1-yn-1-yl)thieno[2,3-d]pyrimidin-4-yl]oxy}-3-(2-methoxyphenyl)propanoic acid] | 
 | COc1ccccc1CC(Oc1ncnc2sc(C(=O)N(C)C)c(-c3ccc(OCCN4CCN(C)CC4)c(Cl)c3C)c12)C(=O)O [Example 574, (2R)-2-{[(5Ra)-5-{3-chloro-2-methyl-4-[2-(4-methylpiperazin-1-yl)ethoxy]phenyl}-6-(dimethylcarbamoyl)thieno[2,3-d]pyrimidin-4-yl]oxy}-3-(2-methoxyphenyl)propanoic acid] | 24.3
 | COc1ccccc1CC(Oc1ncnc2sc(C(=O)N(C)C)c(-c3ccc(OCCN4CCN(C)CC4)c(Cl)c3C)c12)C(=O)O [Example 575, (2R)-2-{[(5Sa)-5-{3-chloro-2-methyl-4-[2-(4-methylpiperazin-1-yl)ethoxy]phenyl}-6-(dimethylcarbamoyl)thieno[2,3-d]pyrimidin-4-yl]oxy}-3-(2-methoxyphenyl)propanoic acid] | 46.8

Reference: patent US9670227B2, “Thienopyrimidine derivatives, a process for their preparation and pharmaceutical compositions containing them” (LES LABORATOIRES SERVIER, priority 2013, dated 2017)
